Laboratory results reported in PubChem BioAssay (NCI).
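Values below derive from 48-hour exposures of cells grown in 96-well plates, with endpoints linearly interpolated between the two concentrations bracketing the appropriate inhibition level. At the TGI there is no net growth.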

Tests used:
Assay in all cases: growth of human tumour cells (NCI), 48 h
DU-145 prostate = test system: DU-145 prostate
IGROV1 ovarian = test system: IGROV1 ovarian
NCI-H226 lung = test system: NCI-H226 lung
OVCAR-5 ovarian = test system: OVCAR-5 ovarian
RPMI-8226 leukemia = test system: RPMI-8226 leukemia
SF-295 CNS = test system: SF-295 CNS
SK-MEL-28 melanoma = test system: SK-MEL-28 melanoma
SK-OV-3 ovarian = test system: SK-OV-3 ovarian
T-47D breast = test system: T-47D breast
UO-31 renal = test system: UO-31 renal

Compound | TGI (DU-145 prostate) [µM] | TGI (IGROV1 ovarian) [µM] | TGI (NCI-H226 lung) [µM] | TGI (OVCAR-5 ovarian) [µM] | TGI (RPMI-8226 leukemia) [µM] | TGI (SF-295 CNS) [µM] | TGI (SK-MEL-28 melanoma) [µM] | TGI (SK-OV-3 ovarian) [µM] | TGI (T-47D breast) [µM] | TGI (UO-31 renal) [µM]
Cn1c2ccccc2n2c3ncccc3c(=NCCCC(=O)O)c(C#N)c12 | > 100 | > 100 | > 100 | > 100 | > 100 | > 100 | > 100 | > 100 | > 100 | > 100
CCCC(=O)NC(Nc1cc(C)ccn1)(C(=O)OCC)C(F)(F)F (configuration not stated) | > 100 | > 100 | > 100 | > 100 | > 100 | > 100 | > 100 | > 100 | > 100 | > 100
Cc1c2ccnc(C(=O)NCCN(C)C)c2cc2c3cc(O)ccc3n(C)c12 | 0.771 | 6.72 | 2.26 | 6.29 | 1.14 | 3.37 | 2.14 | 1.65 | 2.83 | 4.11
O=C(NC(Cl)(C(F)(F)F)C(F)(F)F)c1ccc(F)cc1 | > 100 | > 100 | > 100 | > 100 | > 100 | > 100 | > 100 | > 100 | > 100 | > 100
NC(CSCc1ccc(I)cc1)C(=O)O (configuration not stated) | > 100 | > 100 | > 100 | > 100 | > 100 | > 100 | > 100 | > 100 | > 100 | > 100
O=[N+]([O-])c1ccc(-c2cc(O)c3nc4ccccc4n3c2)cc1 | > 100 | > 100 | > 100 | > 100 | > 100 | > 100 | > 100 | > 100 | > 100 | > 100
O=c1[nH]nc(Cc2ccc(Cl)cc2)n1/N=C/c1ccco1 | > 100 |  | > 100 | > 100 | > 100 | > 100 | > 100 | > 100 | > 100 | > 100
CN(C)CCCC1c2ccccc2Oc2ccc(C(F)(F)F)cc21 (configuration not stated) | 31.1 | 27.6 | 23.1 | 29.2 | 25.3 | 31.6 | 15.7 | 30.7 | 30.5 | 6.49
CC(C)C1OC(N)=C(C#N)C1(C#N)C#N (configuration not stated) | > 100 | > 100 | > 100 | > 100 | 79.2 | > 100 |  | > 100 | > 100 | > 100
O=C(c1cc2ccccc2[nH]1)N1C2CCC1CN(CCOC(c1ccc(F)cc1)c1ccc(F)cc1)CC2 (configuration not stated) | > 100 | > 100 | > 100 | > 100 | > 100 | > 100 | > 100 | > 100 | > 100 | 
